Laboratory results as given in PubChem BioAssay (NCI).
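Assay format: 96-well plates, 48-hour exposure. TGI marks complete inhibition of growth.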

Key:
Assay in all cases: NCI-60 cell line screen, 48 h
HT29 colon = tested on: HT29 colon
NCI-H23 lung = tested on: NCI-H23 lung
SF-539 CNS = tested on: SF-539 CNS
SNB-19 CNS = tested on: SNB-19 CNS
M19-MEL melanoma = tested on: M19-MEL melanoma
HCC-2998 colon = tested on: HCC-2998 colon
UACC-62 melanoma = tested on: UACC-62 melanoma
UO-31 renal = tested on: UO-31 renal
SK-OV-3 ovarian = tested on: SK-OV-3 ovarian
M14 melanoma = tested on: M14 melanoma
COLO 205 colon = tested on: COLO 205 colon
NCI-H226 lung = tested on: NCI-H226 lung
OVCAR-8 ovarian = tested on: OVCAR-8 ovarian
CCRF-CEM leukemia = tested on: CCRF-CEM leukemia
UACC-257 melanoma = tested on: UACC-257 melanoma
EKVX NSCLC = tested on: EKVX NSCLC
SR leukemia = tested on: SR leukemia
K-562 leukemia = tested on: K-562 leukemia
SW-620 colon = tested on: SW-620 colon
SN12C renal = tested on: SN12C renal
SK-MEL-28 melanoma = tested on: SK-MEL-28 melanoma
SNB-75 CNS = tested on: SNB-75 CNS
RPMI-8226 leukemia = tested on: RPMI-8226 leukemia
786-0 renal = tested on: 786-0 renal
MALME-3M melanoma = tested on: MALME-3M melanoma
TK-10 renal = tested on: TK-10 renal
HCT-15 colon = tested on: HCT-15 colon
HL-60(TB) leukemia = tested on: HL-60(TB) leukemia
MOLT-4 leukemia = tested on: MOLT-4 leukemia
LXFL 529 NSCLC = tested on: LXFL 529 NSCLC
HOP-18 NSCLC = tested on: HOP-18 NSCLC
IGROV1 ovarian = tested on: IGROV1 ovarian
DMS 114 small cell lung = tested on: DMS 114 small cell lung
ACHN renal = tested on: ACHN renal
U251 CNS = tested on: U251 CNS
XF 498 CNS = tested on: XF 498 CNS
HOP-62 NSCLC = tested on: HOP-62 NSCLC
SF-268 CNS = tested on: SF-268 CNS
DLD-1 colon = tested on: DLD-1 colon
SNB-78 CNS = tested on: SNB-78 CNS
OVCAR-5 ovarian = tested on: OVCAR-5 ovarian
KM12 colon = tested on: KM12 colon
LOX IMVI melanoma = tested on: LOX IMVI melanoma
OVCAR-3 ovarian = tested on: OVCAR-3 ovarian
NCI-H522 lung = tested on: NCI-H522 lung
SK-MEL-2 melanoma = tested on: SK-MEL-2 melanoma
A498 renal = tested on: A498 renal
HOP-92 NSCLC = tested on: HOP-92 NSCLC
RXF-631 renal = tested on: RXF-631 renal
NCI-H460 lung = tested on: NCI-H460 lung
RXF 393 renal = tested on: RXF 393 renal
CAKI-1 renal = tested on: CAKI-1 renal
SK-MEL-5 melanoma = tested on: SK-MEL-5 melanoma
A549 NSCLC = tested on: A549 NSCLC
OVCAR-4 ovarian = tested on: OVCAR-4 ovarian
HCT-116 colon = tested on: HCT-116 colon
SF-295 CNS = tested on: SF-295 CNS
DMS 273 small cell lung = tested on: DMS 273 small cell lung
KM20L2 colon = tested on: KM20L2 colon
BT-549 breast = tested on: BT-549 breast
MDA-N = tested on: MDA-N
PC-3 prostate = tested on: PC-3 prostate
MCF7 breast = tested on: MCF7 breast
DU-145 prostate = tested on: DU-145 prostate
MDA-MB-231 breast = tested on: MDA-MB-231 breast
NCI/ADR-RES ovarian = tested on: NCI/ADR-RES ovarian
T-47D breast = tested on: T-47D breast
HS 578T breast = tested on: HS 578T breast
MDA-MB-435 = tested on: MDA-MB-435

## COc1cc(C2c3cc4c(cc3C(NCC(O)CO)C3COC(=O)[C@H]23)OCO4)cc(OC)c1OC (some centres undefined)
HT29 colon
  TGI: > 100 µM
NCI-H23 lung
  TGI: 0.797 µM
SF-539 CNS
  TGI: 0.344 µM
SNB-19 CNS
  TGI: > 100 µM
M19-MEL melanoma
  TGI: > 100 µM
HCC-2998 colon
  TGI: > 100 µM
UACC-62 melanoma
  TGI: > 100 µM
UO-31 renal
  TGI: > 100 µM
SK-OV-3 ovarian
  TGI: > 100 µM
M14 melanoma
  TGI: > 100 µM
COLO 205 colon
  TGI: 0.364 µM
NCI-H226 lung
  TGI: 0.655 µM
OVCAR-8 ovarian
  TGI: > 100 µM
CCRF-CEM leukemia
  TGI: > 100 µM
UACC-257 melanoma
  TGI: > 100 µM
EKVX NSCLC
  TGI: > 100 µM
SR leukemia
  TGI: > 100 µM
K-562 leukemia
  TGI: > 100 µM
SW-620 colon
  TGI: > 100 µM
SN12C renal
  TGI: > 100 µM
SK-MEL-28 melanoma
  TGI: > 100 µM
SNB-75 CNS
  TGI: > 100 µM
RPMI-8226 leukemia
  TGI: > 100 µM
786-0 renal
  TGI: > 100 µM
MALME-3M melanoma
  TGI: > 100 µM
TK-10 renal
  TGI: > 100 µM
HCT-15 colon
  TGI: > 100 µM
HL-60(TB) leukemia
  TGI: 0.543 µM
MOLT-4 leukemia
  TGI: > 100 µM
LXFL 529 NSCLC
  TGI: > 100 µM
HOP-18 NSCLC
  TGI: > 100 µM
IGROV1 ovarian
  TGI: > 100 µM
DMS 114 small cell lung
  TGI: 245 nM
ACHN renal
  TGI: > 100 µM
U251 CNS
  TGI: 0.766 µM
XF 498 CNS
  TGI: > 100 µM
HOP-62 NSCLC
  TGI: 0.676 µM
SF-268 CNS
  TGI: > 100 µM
DLD-1 colon
  TGI: > 100 µM
SNB-78 CNS
  TGI: > 100 µM
OVCAR-5 ovarian
  TGI: > 100 µM
KM12 colon
  TGI: > 100 µM
LOX IMVI melanoma
  TGI: > 100 µM

## COC(=O)CC(C(C(=O)OC)C(=O)OC)N1C(=O)OCC1c1ccccc1 (centres undefined)
OVCAR-3 ovarian
  TGI: > 100 µM
HT29 colon
  TGI: > 100 µM
NCI-H23 lung
  TGI: > 100 µM
SF-539 CNS
  TGI: > 100 µM
SNB-19 CNS
  TGI: > 100 µM
M19-MEL melanoma
  TGI: > 100 µM
NCI-H522 lung
  TGI: > 100 µM
SK-MEL-2 melanoma
  TGI: > 100 µM
HCC-2998 colon
  TGI: > 100 µM
UACC-62 melanoma
  TGI: > 100 µM
A498 renal
  TGI: > 100 µM
HOP-92 NSCLC
  TGI: > 100 µM
UO-31 renal
  TGI: > 100 µM
SK-OV-3 ovarian
  TGI: > 100 µM
M14 melanoma
  TGI: > 100 µM
RXF-631 renal
  TGI: > 100 µM
COLO 205 colon
  TGI: > 100 µM
NCI-H460 lung
  TGI: > 100 µM
NCI-H226 lung
  TGI: > 100 µM
RXF 393 renal
  TGI: > 100 µM
OVCAR-8 ovarian
  TGI: > 100 µM
CAKI-1 renal
  TGI: > 100 µM
CCRF-CEM leukemia
  TGI: > 100 µM
UACC-257 melanoma
  TGI: > 100 µM
EKVX NSCLC
  TGI: > 100 µM
K-562 leukemia
  TGI: > 100 µM
SW-620 colon
  TGI: > 100 µM
SK-MEL-5 melanoma
  TGI: > 100 µM
SN12C renal
  TGI: > 100 µM
SK-MEL-28 melanoma
  TGI: > 100 µM
SNB-75 CNS
  TGI: > 100 µM
RPMI-8226 leukemia
  TGI: > 100 µM
786-0 renal
  TGI: > 100 µM
MALME-3M melanoma
  TGI: > 100 µM
TK-10 renal
  TGI: > 100 µM
HCT-15 colon
  TGI: > 100 µM
A549 NSCLC
  TGI: > 100 µM
HL-60(TB) leukemia
  TGI: > 100 µM
MOLT-4 leukemia
  TGI: > 100 µM
LXFL 529 NSCLC
  TGI: > 100 µM
IGROV1 ovarian
  TGI: > 100 µM
ACHN renal
  TGI: > 100 µM
U251 CNS
  TGI: > 100 µM
XF 498 CNS
  TGI: > 100 µM
HOP-62 NSCLC
  TGI: > 100 µM
SF-268 CNS
  TGI: > 100 µM
OVCAR-4 ovarian
  TGI: > 100 µM
DLD-1 colon
  TGI: > 100 µM
HCT-116 colon
  TGI: > 100 µM
OVCAR-5 ovarian
  TGI: > 100 µM
SF-295 CNS
  TGI: > 100 µM
KM12 colon
  TGI: > 100 µM
DMS 273 small cell lung
  TGI: > 100 µM
LOX IMVI melanoma
  TGI: > 100 µM
KM20L2 colon
  TGI: > 100 µM

## CC1OC(n2cc(F)c(=O)[nH]c2=O)CCC1O (centres undefined)
BT-549 breast
  TGI: > 100 µM
OVCAR-3 ovarian
  TGI: > 100 µM
HT29 colon
  TGI: > 100 µM
MDA-N
  TGI: > 100 µM
NCI-H23 lung
  TGI: > 100 µM
SF-539 CNS
  TGI: 84.4 µM
SNB-19 CNS
  TGI: > 100 µM
M19-MEL melanoma
  TGI: > 100 µM
PC-3 prostate
  TGI: > 100 µM
NCI-H522 lung
  TGI: > 100 µM
SK-MEL-2 melanoma
  TGI: > 100 µM
HCC-2998 colon
  TGI: > 100 µM
UACC-62 melanoma
  TGI: > 100 µM
MCF7 breast
  TGI: > 72.3 µM
A498 renal
  TGI: > 100 µM
HOP-92 NSCLC
  TGI: > 100 µM
UO-31 renal
  TGI: > 100 µM
SK-OV-3 ovarian
  TGI: > 100 µM
M14 melanoma
  TGI: > 100 µM
COLO 205 colon
  TGI: > 100 µM
DU-145 prostate
  TGI: > 100 µM
MDA-MB-231 breast
  TGI: > 100 µM
NCI/ADR-RES ovarian
  TGI: > 100 µM
NCI-H460 lung
  TGI: > 100 µM
NCI-H226 lung
  TGI: > 100 µM
T-47D breast
  TGI: > 100 µM
RXF 393 renal
  TGI: > 100 µM
OVCAR-8 ovarian
  TGI: > 100 µM
CAKI-1 renal
  TGI: > 100 µM
CCRF-CEM leukemia
  TGI: > 100 µM
UACC-257 melanoma
  TGI: > 100 µM
EKVX NSCLC
  TGI: > 100 µM
SR leukemia
  TGI: > 100 µM
K-562 leukemia
  TGI: > 100 µM
SW-620 colon
  TGI: > 100 µM
SK-MEL-5 melanoma
  TGI: > 56.2 µM
HS 578T breast
  TGI: > 100 µM
SN12C renal
  TGI: > 100 µM
SK-MEL-28 melanoma
  TGI: > 100 µM
MDA-MB-435
  TGI: > 100 µM
SNB-75 CNS
  TGI: > 100 µM
RPMI-8226 leukemia
  TGI: > 100 µM
786-0 renal
  TGI: > 100 µM
MALME-3M melanoma
  TGI: > 100 µM
TK-10 renal
  TGI: > 100 µM
HCT-15 colon
  TGI: > 100 µM
A549 NSCLC
  TGI: > 100 µM
HL-60(TB) leukemia
  TGI: > 100 µM
MOLT-4 leukemia
  TGI: > 100 µM
LXFL 529 NSCLC
  TGI: > 100 µM
HOP-18 NSCLC
  TGI: > 100 µM
IGROV1 ovarian
  TGI: > 100 µM
ACHN renal
  TGI: > 100 µM
U251 CNS
  TGI: > 100 µM
HOP-62 NSCLC
  TGI: > 100 µM
SF-268 CNS
  TGI: > 100 µM
OVCAR-4 ovarian
  TGI: > 100 µM
DLD-1 colon
  TGI: > 100 µM
SNB-78 CNS
  TGI: > 100 µM
HCT-116 colon
  TGI: > 100 µM
OVCAR-5 ovarian
  TGI: > 100 µM
SF-295 CNS
  TGI: > 100 µM
KM12 colon
  TGI: > 100 µM
DMS 273 small cell lung
  TGI: > 100 µM
LOX IMVI melanoma
  TGI: > 100 µM
KM20L2 colon
  TGI: > 100 µM
